The results in this text go back to patent US7897778B2, “Benzamide compounds” (AstraZeneca, priority 2004, dated 2011).

pIC50: −log10 of the molar value.

The target in assay [1] is T1, recombinant human HDAC1 (Homo sapiens, UniProt Q13547).
T1 construct: FLAG (C); made in house; host or cells: Hi5 insect cells
Put plainly: In vitro enzyme assay of recombinant HDAC1. The format is biochemical. To be noted: recombinant human HDAC1 produced in Hi5 insect cells; acetylated histone H4 peptide, Fluor de Lys; read-out: Test (a) IC50. How it is done:
(a) In Vitro Enzyme Assay of recombinant HDAC1
HDAC inhibitors were screened against recombinant human HDAC1 produced in Hi5 insect cells. The enzyme was cloned with a FLAG tag at the C-terminal of the gene and affinity purified using Anti-FLAG M2 agarose from SIGMA (A2220).
The deacetylase assays were carried out in a 50 μl reaction. HDAC1 (75 ng of enzyme) diluted in 15 μl of reaction buffer (25 mM Tris HCl (pH 8), 137 mM NaCl, 2.7 mM KCl, 1 mM MgCl2) was mixed with either buffer alone (10 μl) or buffer containing compound (10 μl) for 30 minutes at ambient temperature. The 25 μM acetylated histone H4 peptide (KI 174 Biomol) diluted in 25 μl of buffer was then added to the reaction and incubated for one hour at ambient temperature. The reaction was stopped by addition of an equal volume (50 μl) Fluor de Lys developer (Biomol) containing Trichostatin A at 2 μM. The reaction was allowed to develop for 30 minutes at ambient temperature and then fluorescence measured at an excitation wavelength of 360 nm and an emission wavelength of 465 nm. The IC50 values for HDAC enzyme inhibitors were determined by performing dose response curves with individual compounds and determining the concentration of inhibitor producing fifty percent decrease in the maximal signal (diluent control).

Assay [2] relates to HCT116 cells. Nature of the assay: In vitro assay of inhibition of proliferation in whole cells (MTS). Format: cell-based. To be noted: Homo sapiens, HCT-116, 72 hours treatment, read-out: Test (b) IC50. The procedure: (b) In Vitro Assay of Inhibition of Proliferation in Whole Cells
Inhibition of proliferation in whole cells was assayed using the Promega cell titer 96 aqueous proliferation assay (Promega #G5421). The HCT116 cells were seeded in 96 well plates at 1×10^3 cells/well, and allowed to adhere overnight. They were treated with inhibitors for 72 hours. The 20 μl of the tetrazolium dye MTS was added to each well and the plates were reincubated for 3 hours. Absorbance was then measured on a 96 well plate reader at […]. The IC50 values for HDAC inhibitors were determined by performing dose response curves with individual compounds and determining the concentration of inhibitor producing fifty percent decrease in maximal signal (diluent control).

T1 sequence (Q13547 whole entry): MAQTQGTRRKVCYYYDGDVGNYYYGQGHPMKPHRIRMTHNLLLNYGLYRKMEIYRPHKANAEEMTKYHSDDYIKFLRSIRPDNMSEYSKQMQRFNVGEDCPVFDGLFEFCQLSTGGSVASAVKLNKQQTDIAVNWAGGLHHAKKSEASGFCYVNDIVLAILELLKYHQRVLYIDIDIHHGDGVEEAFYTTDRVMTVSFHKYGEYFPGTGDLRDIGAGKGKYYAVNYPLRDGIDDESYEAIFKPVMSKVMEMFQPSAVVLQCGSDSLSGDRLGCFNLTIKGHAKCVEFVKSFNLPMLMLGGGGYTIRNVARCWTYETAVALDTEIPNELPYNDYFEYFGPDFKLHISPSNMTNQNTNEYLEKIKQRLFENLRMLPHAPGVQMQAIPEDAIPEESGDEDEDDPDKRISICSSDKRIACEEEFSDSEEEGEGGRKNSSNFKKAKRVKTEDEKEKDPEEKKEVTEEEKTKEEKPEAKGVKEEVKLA

For orientation: pIC50 means the negative decadic logarithm of the IC50, by convention in mol/L. For the molecule `N#Cc1cccnc1-c1ccc(C(=O)Nc2ccccc2N)cc1` [Example 1, N-(2-aminophenyl)-4-(3-cyanopyridin-2-yl)benzamide], the results for the pIC50 in assay [1] and in assay [2] were 7.89 and 6.54, respectively.
Consider `CC(C)N(C)Cc1cnc(-c2ccc(C(=O)Nc3ccccc3N)cc2)c(C#N)c1` [5 (15), N-(2-aminophenyl)-4-(3-cyano-5-{[isopropyl(methyl)amino]methyl}pyridin-2-yl)benzamide], for which the values for the negative-log IC50 (pIC50) in assay [1] and in assay [2] were 7.92 and 6.54, respectively.
On the same counts, the results for `C[C@@H]1CC[C@@H](C)N1Cc1cnc(-c2ccc(C(=O)Nc3ccccc3N)cc2)c(C#N)c1` [2 (12), N-(2-aminophenyl)-4-(3-cyano-5-{[(2R,5R)-2,5-dimethylpyrrolidin-1-yl]methyl}pyridin-2-yl)benzamide] are 8.22 and 6.66.
Consider `N#Cc1cc(CN2CCC(c3ccccn3)C2)cnc1-c1ccc(C(=O)Nc2ccccc2N)cc1` (centres unmarked) [2 (10), N-(2-aminophenyl)-4-{3-cyano-5-[(3-pyridin-2-ylpyrrolidin-1-yl)methyl]pyridin-2-yl}benzamide], for which the pIC50 in assay [1] is 8.52; in assay [2] it was 6.68.
